PubChem BioAssay AID1259407 (Chemical Carcinogenesis Research Information System (CCRIS), 2018)
Activity calls are given as the source filed them. The rule behind the calls is not given here.

Test system: CCRIS mutagenicity, Ames/micronucleus/aberration tests
Test: CCRIS mutagenicity studies
[1] = Test System: AMES SALMONELLA TYPHIMURIUM, Strain/Indicator: TA98, Metabolic Activation: NONE, Method: STANDARD PLATE
[2] = Test System: AMES SALMONELLA TYPHIMURIUM, Strain/Indicator: TA98, Metabolic Activation: RAT, LIVER, S-9, AROCLOR 1254, Method: STANDARD PLATE
[3] = Test System: AMES SALMONELLA TYPHIMURIUM, Strain/Indicator: TA100, Metabolic Activation: NONE, Method: STANDARD PLATE
[4] = Test System: AMES SALMONELLA TYPHIMURIUM, Strain/Indicator: TA100, Metabolic Activation: RAT, LIVER, S-9, AROCLOR 1254, Method: STANDARD PLATE
[5] = Test System: AMES SALMONELLA TYPHIMURIUM, Strain/Indicator: TA98, Metabolic Activation: NONE, Method: PREINCUBATION

Measured: mutagenic call

N=C1C=CC(=C(c2ccc(N)cc2)c2ccc(N)cc2)C=C1
inactive: End Point: IN VITRO CHROMOSOMAL ABERRATIONS, Test System: CHO CELLS, Metabolic Activation: NONE inactive; negative | End Point: IN VITRO CHROMOSOMAL ABERRATIONS, Test System: CHO CELLS, Metabolic Activation: RAT, LIVER, S-9, AROCLOR 1254 inactive; negative | Test System: AMES SALMONELLA TYPHIMURIUM, Strain/Indicator: TA97, Metabolic Activation: NONE, Method: STANDARD PLATE inactive; negative | Test System: AMES SALMONELLA TYPHIMURIUM, Strain/Indicator: TA97A, Metabolic Activation: NONE, Method: STANDARD PLATE inactive; negative | Test System: AMES SALMONELLA TYPHIMURIUM, Strain/Indicator: TA97A, Metabolic Activation: RAT, LIVER, S-9, AROCLOR 1254, Method: STANDARD PLATE inactive; negative | Test System: AMES SALMONELLA TYPHIMURIUM, Strain/Indicator: TA1535, Metabolic Activation: HAMSTER, LIVER, S-9, AROCLOR 1254, Method: STANDARD PLATE inactive; negative | Test System: AMES SALMONELLA TYPHIMURIUM, Strain/Indicator: TA1535, Metabolic Activation: NONE, Method: STANDARD PLATE inactive; negative | Test System: AMES SALMONELLA TYPHIMURIUM, Strain/Indicator: TA1535, Metabolic Activation: RAT, LIVER, S-9, AROCLOR 1254, Method: STANDARD PLATE inactive; negative | Test System: AMES SALMONELLA TYPHIMURIUM, Strain/Indicator: TA1537, Metabolic Activation: HAMSTER, LIVER, S-9, AROCLOR 1254, Method: STANDARD PLATE inactive; negative | Test System: AMES SALMONELLA TYPHIMURIUM, Strain/Indicator: TA1537, Metabolic Activation: NONE, Method: STANDARD PLATE inactive; negative | Test System: AMES SALMONELLA TYPHIMURIUM, Strain/Indicator: TA1537, Metabolic Activation: RAT, LIVER, S-9, AROCLOR 1254, Method: STANDARD PLATE inactive; negative | Test System: E. COLI, Strain/Indicator: WP2 UVRA, Metabolic Activation: HAMSTER, LIVER, S-9, AROCLOR 1254, Method: STANDARD PLATE inactive; negative | Test System: E. COLI, Strain/Indicator: WP2 UVRA, Metabolic Activation: HAMSTER, LIVER, S-9, Method: STANDARD PLATE inactive; negative | Test System: E. COLI, Strain/Indicator: WP2 UVRA, Metabolic Activation: MOUSE, LIVER, S-9, AROCLOR 1254, Method: STANDARD PLATE inactive; negative | Test System: E. COLI, Strain/Indicator: WP2 UVRA, Metabolic Activation: MOUSE, LIVER, S-9, Method: STANDARD PLATE inactive; negative | Test System: E. COLI, Strain/Indicator: WP2 UVRA, Metabolic Activation: NONE, Method: STANDARD PLATE inactive; negative | Test System: E. COLI, Strain/Indicator: WP2 UVRA, Metabolic Activation: RAT, LIVER, S-9, AROCLOR 1254, Method: STANDARD PLATE inactive; negative | Test System: E. COLI, Strain/Indicator: WP2 UVRA, Metabolic Activation: RAT, LIVER, S-9, Method: STANDARD PLATE inactive; negative
active: Test System: AMES SALMONELLA TYPHIMURIUM, Strain/Indicator: TA97, Metabolic Activation: RAT, LIVER, S-9, AROCLOR 1254, Method: STANDARD PLATE active; positive | Test System: AMES SALMONELLA TYPHIMURIUM, Strain/Indicator: TA98, Metabolic Activation: HAMSTER, LIVER, S-9, AROCLOR 1254, Method: STANDARD PLATE active; positive | [1] active; positive | [2] active; positive | Test System: AMES SALMONELLA TYPHIMURIUM, Strain/Indicator: TA100, Metabolic Activation: HAMSTER, LIVER, S-9, AROCLOR 1254, Method: STANDARD PLATE active; positive | [3] active; positive | [4] active; positive | Test System: MOUSE LYMPHOMA, Strain/Indicator: L5178Y (TK+/TK-), Metabolic Activation: NONE, Method: SUSPENSION/PLATE active; positive | Test System: MOUSE LYMPHOMA, Strain/Indicator: L5178Y (TK+/TK-), Metabolic Activation: RAT, LIVER, S-9, AROCLOR 1254, Method: SUSPENSION/PLATE active; positive

ClCc1ccc2ccc3cccc4ccc1c2c34
active: Test System: AMES SALMONELLA TYPHIMURIUM, Strain/Indicator: TA98, Metabolic Activation: NONE active; positive | [5] active; positive | [1] active; positive | [3] active; positive

C1CSCSC1
inactive: [2] inactive; negative
active: [1] active; positive | [3] active; positive | [4] active; positive

CC(=O)C=O
inactive: Test System: AMES SALMONELLA TYPHIMURIUM, Strain/Indicator: TA98, Metabolic Activation: RAT, LIVER, S-9, AROCLOR 1254, Method: PREINCUBATION inactive; negative
active: [5] active; positive | Test System: AMES SALMONELLA TYPHIMURIUM, Strain/Indicator: TA100, Metabolic Activation: NONE, Method: PREINCUBATION active; positive | [3] active; positive | Test System: AMES SALMONELLA TYPHIMURIUM, Strain/Indicator: TA100, Metabolic Activation: RAT, LIVER, S-9, AROCLOR 1254, Method: PREINCUBATION active; positive | Test System: AMES SALMONELLA TYPHIMURIUM, Strain/Indicator: TA102, Metabolic Activation: NONE, Method: PREINCUBATION active; positive | Test System: AMES SALMONELLA TYPHIMURIUM, Strain/Indicator: TA102, Metabolic Activation: RAT, LIVER, S-9, AROCLOR 1254, Method: PREINCUBATION active; positive | Test System: AMES SALMONELLA TYPHIMURIUM, Strain/Indicator: TA102, Metabolic Activation: RAT, LIVER, S-9, PHENOBARBITAL AND BETA-NAPHTHOFLAVONE, Method: PREINCUBATION active; positive | Test System: AMES SALMONELLA TYPHIMURIUM, Strain/Indicator: TA104, Metabolic Activation: NONE, Method: PREINCUBATION active; positive | Test System: AMES SALMONELLA TYPHIMURIUM, Strain/Indicator: TA104, Metabolic Activation: RAT, LIVER, S-9, PHENOBARBITAL AND BETA-NAPHTHOFLAVONE, Method: PREINCUBATION active; positive | Test System: AMES SALMONELLA TYPHIMURIUM, Strain/Indicator: TA2638, Metabolic Activation: NONE, Method: PREINCUBATION active; positive | Test System: AMES SALMONELLA TYPHIMURIUM, Strain/Indicator: TA2659, Metabolic Activation: NONE, Method: PREINCUBATION active; positive | Test System: CHINESE HAMSTER V-79, Strain/Indicator: V-79/6-THIOGUANINE, Metabolic Activation: NONE, Method: PREINCUBATION active; positive | Test System: CHINESE HAMSTER V-79, Strain/Indicator: V-79/6-THIOGUANINE, Metabolic Activation: RAT HEPATOCYTES, Method: PREINCUBATION active; positive
